Test results taken from EP1923473B1, “Bis-diglycolamides (BISDGA) as new extractants for lanthanides [Ln(III)] and actinides [An(III)] from aqueous high-level wastes” (Universidad Autónoma de Madrid, priority 2006, dated 2008).

What was measured:
Type in all cases: physicochemical
[1] = Eu/Am selectivity factor in extraction from 3 mol/L nitric acid; conditions: aqueous [HNO3] 3 mol/L
Protocol: (§1) 600 µL of the organic phase of the compound to be studied, previously equilibrated, were contacted with 600 µL of aqueous phase consisting of a 3 mol/L nitric acid solution spiked with 600 Bq of ^152Eu and 600 Bq of ^241Am. It was stirred vigorously by means of an oscillating shaker for 30 minutes and the phases were separated by centrifugation at 5000 rpm. 400 µL were taken from each of the phases for determining the concentration of the radionuclides ^152Eu and ^241Am. This determination was carried out by means of the high energy gamma spectrometry technique with a high-purity Ge detector (Canberra Inc.), using the 122 keV line for the determination of ^152Eu concentration and the 59.5 keV line for the determination of ^241Am concentration. The distribution coefficient was calculated by relating the concentration of each of the radionuclides in the organic phase and in the aqueous phase, according to the expression: DM = ([M]org)/([M]aq) [formula]
The Eu/Am selectivity factor was calculated by relating the corresponding distribution coefficients of Eu with those of Am in the same experimental conditions: SFEu/Am = DEu /DAm [formula]
(§2) The distribution coefficients and the selectivity factor of each of them were determined as indicated in sections A) to C).

[2] = Extraction capability from aqueous 3 mol/L nitric acid; conditions: aqueous [HNO3] 3 mol/L spiked with 152Eu(III) and 241Am(III)
Protocol: The organic solutions of the extractant compounds to be tested were prepared dissolving an amount of the extractant compound in the solvent considered in each case to reach the ligand concentration of 0.1 mol/L. The solvents considered were 1-octanol, n-heptane, n-dodecane, the industrial solvent "TPH" (hydrogenated tetrapropylene) used in the "La Hague" reprocessing plant of the COGEMA company (Compagnie générale des matières nucléaires) and different mixtures "TPH/1-octanol or n-dodecane/1-octanol".
Once said solution was obtained, its equilibration was carried out. To that end, 800 µL of the organic solution of the compound to be studied were contacted with 800 µL of nitric acid of 3 mol/L concentration and it was stirred vigorously in an oscillating shaker for 5 minutes. The phases were separated by centrifugation at 5000 rpm. 800 µL of the said organic phase were again contacted with 800 µL of nitric acid of 3 mol/L concentration for another 5 minutes of vigorous shaking. The phases were separated by centrifugation, the organic phase being considered to be equilibrated.
as §1, §2

[3] = Radiolytic stability, extraction capability after irradiation; conditions: after 1000 kGy; irradiated dissolved in n-dodecane/1-octanol (95:5)%vol, equilibrated with 3 mol/L nitric acid
Protocol: The tests of stability against irradiation were carried out in the NAYADE facility at CIEMAT site, with external ^60Co sources with an approximate activity of 5000 Ci, with a homogeneous irradiation flux. The dose rate applied in all the experiments was 4 kGy/h and integrated doses of 250 kGy, 500 kGy, 750 kGy and 1000 kGy were considered. The irradiation device consists of a metal cylinder which is introduced in a rack wherein the ^60CO sources are placed radially, such that the irradiation is homogeneous. The irradiation process is carried out submersing the device in a pool of water with a depth of 4 meters.
Irradiation tests of the solid compound (in the absence of solvent) and of the compound dissolved in the "n-dodecane/1-octanol (95:5)%vol" mixture, equilibrated with 3 mol/L nitric acid, were carried out. The organic solutions were prepared and equilibrated as detailed in the previous sections A) and B).
Once each programmed integrated dose was reached, the extraction capability of the organic samples was evaluated as detailed in section C).
The irradiation of compound 4 in solid form (in the absence of solvent) and dissolved at a 0.1 mol/L concentration in the "n-dodecane/1-octanol 1 (95:5)%vol" mixture, equilibrated with 3 mol/L nitric acid, was carried out. The applied dose rate was 4 kGy/h and the considered integrated doses were 250 kGy, 500 kGy, 750 kGy and 1000 kGy. After each integrated dose, the extraction capability of Am(III) and Eu(III) was evaluated as described in section C.
The considered integrated doses in this experiment were 500 kGy and 1000 kGy at a dose rate of 4 kGy/h.

[4] = Third phase formation in extraction from simulated HLLW; conditions: HLLW without oxalic acid and without HEDTA; TODGA 0.2 mol/L
Protocol: […] Extraction experiments were carried out with said simulated HLLW in a pure form and also adding oxalic acid and HEDTA to it. These complexing agents have shown to be effective in the DIAMEX process for the complexing of Mo, Zr (H2C2O4) and Pd (HEDTA).
The actinides Am (III), Cm (III) and Cf (III) as well as trivalent lanthanides were extracted with high distribution coefficients from HLLW with a 3.2 mol/L nitric acid concentration. […] As expected, Zr and Pd are not co-extracted when complexing agents are added to HLLW.

[5] = 0.1 mol/L in TPH/1-octanol (50:50)%vol

Molecule | SFEu/Am [1, 5] | DAm [2, 5] | DEu [2, 5] | also measured
2-Dibutylcarbamoylmethoxy-N-[3-[(2-dibutylcarbamoyl-methoxy-acetylamino)methyl]benzyl]acetamide [Compound 3] | 1.9 | 99 | 183 | 
2-Dibutylcarbamoylmethoxy-N-[6-(2-dibutylcarbamoyl-methoxyacetylamino)hexyl]acetamide [Compound 14] | 1.8 | 119 | 215 | 
2-Dioctylcarbamoylmethoxy-N-[6-(2-dioctylcarbamoyl-methoxyacetylamino)hexyl]acetamide [Compound 15] |  |  |  | SFEu/Am ([1]; 0.1 mol/L in 1-octanol): 3.9; DAm ([2]; 0.1 mol/L in 1-octanol): 25; DEu ([2]; 0.1 mol/L in 1-octanol): 98
CCCCCCCCN(C)C(=O)COCC(=O)NCc1cccc(CNC(=O)COCC(=O)N(C)CCCCCCCC)c1 [Compound 5, 2-[(Methyloctylcarbamoyl)methoxy]-N-[3-[(2-[(methyl-octyl-carbamoyl)methoxy]acetylamino]methyl]benzyl]-acetamide] | 3.7 | 83 | 309 | 
CC(C)CCN(CCC(C)C)C(=O)COCC(=O)NCc1cccc(CNC(=O)COCC(=O)N(CCC(C)C)CCC(C)C)c1 [Compound 6, 2-[[Bis(3-methylbutyl)carbamoyl]methoxy]-N-[3-[(2-[[bis-(3-methylbutyl)carbamoyl]methoxy]acetylamino)methyl]-benzyl]-acetamide] | 3.1 | 82 | 251 | 
CCCCCCCCN(CCCCCCCC)C(=O)COCC(=O)NCc1ccc(CNC(=O)COCC(=O)N(CCCCCCCC)CCCCCCCC)cc1 [Compound 8] | 4.1 | 67 | 276 | 
CCCCCC(C)Oc1cc(CNC(=O)COCC(=O)N(CCCC)CCCC)cc(CNC(=O)COCC(=O)N(CCCC)CCCC)c1 (stereo not drawn) [Compound 10, 2-Di-butylcarbamoylmethoxy-N-[3-[(2-dibutyl-carbamoyl-methoxyacetylamino)methyl]-5-(1-methylhexyloxy)benzyl]-acetamide] | 6.7 | 41 | 276 | 
CCCCCCCCCCCCOc1cc(CNC(=O)COCC(=O)N(CCCC)CCCC)cc(CNC(=O)COCC(=O)N(CCCC)CCCC)c1 [Compound 11, 2-Di-butylcarbamoylmethoxy-N-[3-[(2-dibutyl-carbamoyl-methoxyacetylamino)methyl]-5-dodecyloxybenzyl]acetamide] | 3.8 | 88 | 335 | 
CCCCN(CCCC)C(=O)COCC(=O)NCCCNC(=O)c1cc(C(C)(C)C)cc2c1Oc1c(C(=O)NCCCNC(=O)COCC(=O)N(CCCC)CCCC)cc(C(C)(C)C)cc1C2(C)C [Compound 19, 2,7-di-tert-butyl-9,9-dimethyl-9H-xanthen-4,5-dicarboxylic acid bis-[[3-(2-dibutylcarbamoylmethoxy-acetylamino)propyl]amide]] | 4.9 | 65 | 318 | 
CCCCCCCCN(CCCCCCCC)C(=O)COCC(=O)N(C)C [DMDODGA, N,N-dimethyl-N',N'-dioctyl-oxapentane-diamide, reference compound] | 1.7 | 477 | 789 | 
CCCCN(CCCC)C(=O)COCC(=O)N(CCCC)CCCC [TBDGA, N,N,N',N'-tetrabutyl-3-oxapentane-diamide, reference compound] | 1.4 | 476 | 680 | 
CCCCCCCCN(CCCCCCCC)C(=O)COCC(=O)N(CCCCCCCC)CCCCCCCC [TODGA, N,N,N',N'-tetraoctyl diglycolamide, reference compound] |  |  |  | DAm [3]: 121; DEu [3]: 458; third phase [4]: a third phase was observed
